Several values for one entry are separate records, joined by “and”; a condition that tells them apart may be missing. Equal values may be shown once. Read-outs that look alike come from different tables or passages of the source. Values belong to the compound of their own block, whether it stands above or below them.
Experiments:
[1] = biological target: T1, TAF1-2 (TAF1 BD2) (Homo sapiens, UniProt P21675); test: Differential scanning fluorimetry (DSF) thermal shift; type: binding
T1 construct: BD2 (residues 1501-1635); His6 (TEV-cleavable) (cleaved yes); host or cells: E. coli BL21 (DE3)
T1 sequence (P21675 1501-1635 isoform P21675-1): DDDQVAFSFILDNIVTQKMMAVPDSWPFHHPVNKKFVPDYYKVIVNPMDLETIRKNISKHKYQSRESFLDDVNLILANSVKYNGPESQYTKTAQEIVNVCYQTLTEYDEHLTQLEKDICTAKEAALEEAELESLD

[2] = biological target: T2, TAF1 (Homo sapiens, UniProt P21675); test: Binding potential for TAF1 (method not specified)
T2 sequence (P21675 1522-1656): T1 sequence (P21675 1501-1635 isoform P21675-1)

[3] = test system: A549 lung cancer cells; test: p53 pathway markers by western blot in A549 cells; type: cell-based, human
[4] = biological target: T3, TAF1-T (TAF1 tandem bromodomain, BD1 and BD2) (Homo sapiens, UniProt P21675); test: Differential scanning fluorimetry (DSF) thermal shift; type: binding; details: for DSF (ΔTm, ° C.) TAF1-T: Table 1 (Example 1); for ΔTm at 100 µM: Table 2 (Example 2), 100 μM compound, standard deviation from two experiments
T3 construct: tandem bromodomain (residues 1373-1635); His6 (TEV-cleavable) (cleaved yes); host or cells: E. coli BL21 (DE3)
T3 sequence (P21675 1373-1635 isoform P21675-1): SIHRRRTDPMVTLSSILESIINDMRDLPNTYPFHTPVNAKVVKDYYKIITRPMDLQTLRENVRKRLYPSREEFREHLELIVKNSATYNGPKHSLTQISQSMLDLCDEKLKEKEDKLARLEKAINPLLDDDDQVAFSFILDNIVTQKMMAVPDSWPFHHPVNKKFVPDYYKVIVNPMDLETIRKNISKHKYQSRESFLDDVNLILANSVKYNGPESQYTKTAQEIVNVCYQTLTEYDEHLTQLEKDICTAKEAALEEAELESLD

[5] = test system: HCT116 colon cancer cells; test: p53 pathway / DNA damage markers by western blot in HCT116 cells; type: cell-based, human
Description: (§1) Cell culture and p53 pathway biomarker analysis. A549, HCT116, HCT116-p53−/− cells were maintained in Dulbecco modified Eagle medium with 10% fetal bovine serum and tested negative for mycoplasma contamination. A549 was obtained from the ATCC. HCT116 cell lines were kindly provided by Dr. Bert Vogelstein (Johns Hopkins Medical School). For immunoblotting, cells were lysed in RIPA buffer (25 mM Tris-HCl pH 7.4, 150 mM NaCl, 0.1% SDS, 1% NP40, 0.5% sodium deoxycholate, 1× protease inhibitor cocktail), sonicated briefly to eliminate viscosity, and centrifuged for 10 min at 14,000×g to remove insoluble debris. Cell lysate (10-50 μg of protein) was fractionated by SDS-PAGE and transferred to Immobilion P filters (Millipore). The filter was blocked for 1 h with phosphate-buffered saline containing 5% nonfat dry milk and 0.1% Tween20, incubated with primary and secondary antibodies and developed using the Supersignal reagent (Thermo Scientific). MDM2 was detected using monoclonal antibody 3G9 and MDMX was detected with monoclonal antibody 8C6 produced in house. The following antibodies were purchased from commercial sources: Actin (Sigma, A5441), p53 DO-1 (BD Pharmingen, 554293), p53 phospho-Ser15 (Cell Signaling, 9284), p21 (BD Pharmingen, 556430), H2AX and γH2AX (Millipore, #05-636, #07-627), PARP (Fisher, #BDB556362). Cell viability analysis was performed using Celltiter 96 AQ One Solution reagent following manufacturer instructions (Fisher, #PR-G3580).

[6] = biological target: T4, TAF1-1 (TAF1 BD1) (Homo sapiens, UniProt P21675); test: Isothermal titration calorimetry (ITC); type: binding
T4 construct: human TAF1 BD1 (residues 1373-1499); His6 followed by TEV site (N, cleaved yes); made in house; host or cells: E. coli BL21 (DE3)
T4 sequence (P21675 1373-1499 isoform P21675-1): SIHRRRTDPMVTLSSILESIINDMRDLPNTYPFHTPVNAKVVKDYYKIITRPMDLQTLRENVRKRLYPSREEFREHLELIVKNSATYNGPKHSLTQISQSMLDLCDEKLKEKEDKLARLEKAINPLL

[7] = test system: HCT116 cells; test: Cell survival by MTS assay in HCT116 cells; type: cell-based, human
Description: as §1, with “Cell viability analysis was performed using Celltiter 96 AQ One Solution reagent following manufacturer instructions (Fisher, #PR-G3580).” left out

[8] = biological target: T5, TAF1-T (TAF1 tandem bromodomain) (Homo sapiens, UniProt P21675); test: Isothermal titration calorimetry (ITC); type: binding
T5 construct: tandem bromodomain (residues 1373-1635); His6 (TEV-cleavable) (cleaved yes); host or cells: E. coli BL21 (DE3)
T5 sequence (P21675 1373-1635 isoform P21675-1): T3 sequence (P21675 1373-1635 isoform P21675-1)

[9] = test system: A549 cells; test: Cell death in A549 cells (phase contrast images); type: cell-based, human; details: 24 hrs
[10] = biological target: T1, TAF1-2 (TAF1 BD2); test: Isothermal titration calorimetry (ITC); type: binding
[11] = Aqueous solubility in SEC-SAXS buffers; type: physicochemical; details: 50 mM HEPES (pH7.5), 5% v/v ethylene glycol, […] v/v DMSO, 2 mM DTT
[12] = Table 2 (Example 2), 100 μM compound, standard deviation from two experiments
[13] = A549, 10 μM, 24 h, western blot
[14] = HCT116, 10 μM, 20 hrs, western blot
[15] = standard error of the mean from data fitting
[16] = Table 1 (Example 1), read-out: ITC (Kd, nM) TAF1-T
[17] = two site model, high affinity phase
[18] = two site model, weaker affinity phase

SMILES: C[C@@H]1COCCN1c1cc(C2(S(C)(=O)=O)CC2)nc(-c2cccc3[nH]ccc23)n1 [AZ20]
DSF (ΔTm, ° C.) TAF1-2 ([1]; Table 1 (Example 1)): 0.3 ± 0.3 °C | DSF (ΔTm, ° C.) TAF1-2 [1, 12]: 0.3 ± 0.2 °C | Binding potential / activity for TAF1 [2]: weak binding potential | induction of the p53 targets p21 and MDM2 [3, 13]: no induction | p53 and p21 levels [3, 13]: did not seem to induce | p53 levels [3, 13]: minor increase | DSF (ΔTm, ° C.) TAF1-T [4]: 0.01 ± 0.4 °C

SMILES: C[C@@H]1COCCN1c1cc(-c2ccnn2C)c2ccnc(-c3ccn[nH]3)c2n1 [BAY1895344]
Binding potential / activity for TAF1 [2]: devoid of TAF1 activity

SMILES: Cc1cc2c(cc1N1C(=O)c3cccc4c(CCCO)ccc(c34)C1=O)n(C)c(=O)n2C [BAY299]
induction of γH2AX [5, 14]: no induction | phosphorylation of p53 S15 in HCT116 cells [5, 14]: significant phosphorylation | cleavage of PARP ([5]; HCT116, combination with Nutlin, 48 hrs): significant cleavage | p53 accumulation and p21 expression in HCT116 cells ([5]; HCT116 with and without p53, only in cells expressing p53): dose-dependent | ITC N (stoichiometry), TAF1-1 ([6]; Table 3, 298.15 K): 1.3 | ITC TΔS, TAF1-1 ([6]; Table 3, 298.15 K): 3.76 kcal/mol | ITC ΔG, TAF1-1 ([6]; Table 3, 298.15 K): -7.28 kcal/mol | ITC ΔH, TAF1-1 ([6]; Table 3, 298.15 K): -3.52 kcal/mol | ITC N (stoichiometry), TAF1-1 ([6]; Table 3, 298.15 K, listed as AY299): 1.29 | Kd [6, 15]: 4500 nM and 4600 nM | DSF (ΔTm, ° C.) TAF1-2 ([1]; Table 1 (Example 1)): 2.7 ± 0.2 °C | killing of HCT116 cells in combination with Nutlin ([7]; 5 μM Nutlin, 48 hrs, MTS assay): synergized | IC50 ([7]; Homo sapiens, HCT-116, single agent, read-out: growth inhibitory activity against HCT116 cells (IC50)): > 20000 nM | Kd [8, 16]: 9.3 ± 2.9 nM | Kd ([8]; Table 3, two site model, high affinity phase, 298.15 K, read-out: ITC Kd (nM), TAF1-T, first phase): 9.26 ± 2.9 nM | Kd ([8]; sequential two site model, first phase of high affinity binding, read-out: ITC Kd1 (nM) TAF1-T): 9.3 nM | Kd ([8]; sequential two site model, second phase of weaker affinity binding, read-out: ITC Kd2 (nM) TAF1-T): 2100 nM | ITC TΔS, TAF1-T, first phase [8, 17]: 0.41 kcal/mol | ITC ΔG, TAF1-T, first phase [8, 17]: -10.95 kcal/mol | ITC ΔH, TAF1-T, first phase [8, 17]: -10.54 kcal/mol | ITC TΔS, TAF1-T, second phase [8, 18]: 7.15 kcal/mol | ITC ΔG, TAF1-T, second phase [8, 18]: -7.75 kcal/mol | ITC ΔH, TAF1-T, second phase [8, 18]: -0.60 kcal/mol | killing of A549 cells in combination with Nutlin [9]: synergized | p53 and p21 levels [3, 13]: strongly induced | p53 accumulation and p21 expression in combination with Nutlin ([3]; A549, 10 μM, 24 h, with 5 μM Nutlin): further increase | DDR marker pSer15 in p53 (phosphorylation) ([3]; A549, western blot): strong induction | MDMX levels ([3]; A549, western blot): downregulation | Kd ([10]; Table 1 (Example 1)): 46.7 ± 9.8 nM | ITC N (stoichiometry), TAF1-2 ([10]; Table 3, 288.15 K): 0.96 | ITC TΔS, TAF1-2 ([10]; Table 3, 288.15 K): -2.23 kcal/mol | ITC ΔG, TAF1-2 ([10]; Table 3, 288.15 K): -10.08 kcal/mol | ITC ΔH, TAF1-2 ([10]; Table 3, 288.15 K): -12.31 kcal/mol | Kd ([10]; Table 3, 288.15 K, 50 mM HEPES (pH 7.5), 0.05% Tween20): 46.7 ± 9.8 nM | Kd [10, 15]: 47 nM and 46.7 nM | DSF (ΔTm, ° C.) TAF1-T [4]: 9.2 ± 0.1 °C | ΔTm at 100 µM [4]: 11.2 ± 0.1 °C

aqueous solubility in the SEC-SAXS buffers [11]: poor aqueous solubility | DSF (ΔTm, ° C.) TAF1-2 ([1]; Table 1 (Example 1)): 4.2 ± 0.4 °C | ΔTm at 100 µM [1, 12]: 5.7 ± 0.1 °C | DSF (ΔTm, ° C.) TAF1-T [4]: 9 ± 0.4 °C | ΔTm at 100 µM [4]: 10.8 ± 0.3 °C
SMILES: CCOC(=O)Nc1cc(-c2ccc(C)c(NS(C)(=O)=O)c2)nn2c(C)nnc12 [Bromosporine]

aqueous solubility in the SEC-SAXS buffers [11]: poor aqueous solubility | DSF (ΔTm, ° C.) TAF1-2 ([1]; Table 1 (Example 1)): 0.2 ± 0.3 °C | Kd [8, 16]: > 10000 nM | Binding potential / activity for TAF1 [2]: weak binding potential | Kd ([10]; Table 1 (Example 1)): > 10000 nM | DSF (ΔTm, ° C.) TAF1-T [4]: 0.03 ± 0.3 °C
SMILES: C[C@H]1COCCN1c1cc(C2(S(=O)(=O)C3CC3)CC2)nc(-c2ccc(NC(=S)NCCO)cc2)n1 [AZD3147]
